The values below are quoted from earlier work in US11672748B2, “Aqueous hair conditioner compositions containing solubilized anti-dandruff actives” (The Procter & Gamble Company, priority 2020, dated 2023).

The conditions of the data set: in water.

In the case of `C=CC(C)CCCC(C)(C)O` (centres unmarked) [Dihydro Myrcenol], the “Solubility in H2O (g/L)” value is listed as “Negligible (lower than 0.1) g/L”.
In the case of `CCCCCCCCCCCC(=O)N(C)CC(=O)OC(C)C` [Isoropyl N-Lauroyl Sarcosinate], the “Solubility in H2O (g/L)” value was “(lower than 0.1) g/L”.
